Experiment [1] has as its system C. albicans NCPF3281. Nature of the experiment: Candida panel MIC, serial dilution in 96-well plates. The class given is cell-based, Candida albicans. Particulars: NCPF3281, read-out: MIC C. albicans NCPF3281. The method in brief:
(§1)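 Overnight starter cultures were diluted to OD600 0.01 and added to serially diluted compound (128 to 0.25 μg/mL) in MOPS-buffered RPMI with 2% glucose, pH 7.0, giving 0.5-5×10^5 cells/mL. After 24 h at 37 °C, OD530 was measured and the ≥50% inhibition endpoint taken as MIC.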

Experiment [2] has as its system C. glabrata NCPF8018. The description is as above. Type of experiment: cell-based, Candida glabrata. To be noted: Nakaseomyces glabratus. In short, it runs like this:
(§2)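 MIC taken as lowest concentration inhibiting growth ≥50% relative to drug-free control, from OD530 after 24 hours at 37° C. Fungi at 0.5-5×10^5/mL were exposed to serially diluted compound in RPMI 1640/MOPS/2% glucose medium adjusted to pH 7.0.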

Experiment [3] has as its system C. krusei NCPF3876. Briefly: microbe, parasite or virus in culture. Particulars: Pichia kudriavzevii. Type of experiment: cell-based, Candida krusei. The method in brief:
as §2

For experiment [4], the system named is C. parapsilosis NCPF3209. Briefly: microbe, parasite or virus in culture. The class given is cell-based, Candida parapsilosis. To be noted: Lodderomyces parapsilosis. The method in brief: as §2
The subject of experiment [5] is Candida auris TDG2211. Briefly: microbe, parasite or virus in culture. The class given is cell-based. Particulars: Candidozyma auris, TDG2211; Table 4, extended panel; 24 hours, ≥50% inhibition; read-out: MIC Candida auris TDG2211. In short, it runs like this:
(§3)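 MIC = lowest concentration inhibiting growth ≥50% relative to drug-free control, read by OD530 nm after 24 h at 37° C. Medium: RPMI 1640/MOPS/2% glucose, pH 7.0. Inoculum 0.5-5×10^5/mL.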

Experiment [6] deals with Candida auris TDG2506. Nature of the experiment: microbe, parasite or virus in culture. The class given is cell-based. Particulars: Candidozyma auris, TDG2506; Table 4, extended panel; 24 hours, ≥50% inhibition; read-out: MIC Candida auris TDG2506. The method in brief: as §3
The test system of experiment [7] is C. auris TDG1912. Nature of the experiment: Candida panel MIC, serial dilution in 96-well plates. The class given is cell-based. Particulars: Candidozyma auris, TDG1912; Table 4; 24 hours, ≥50% inhibition; read-out: MIC C. auris TDG1912. In short, it runs like this: as §1
Experiment [8] has as its system C. tropicalis NCPF8760. The description is as above. The class given is cell-based. In short, it runs like this: as §1
The subject of experiment [9] is Candida auris TDG1102. The experiment is described as above. The class given is cell-based. To be noted: Candidozyma auris, TDG1102; Table 4, extended panel; 24 hours, ≥50% inhibition; read-out: MIC Candida auris TDG1102. In short, it runs like this: as §1
In experiment [10] the test system is Candida auris TDG2512. The description is as above. The class given is cell-based. Particulars: Candidozyma auris, TDG2512; Table 4, extended panel; 24 hours, ≥50% inhibition; read-out: MIC Candida auris TDG2512. In short, it runs like this:
as §1

The test system of experiment [11] is C. auris 8971. The description is as above. The class given is cell-based, Candida auris. Particulars: Candidozyma auris, 8971; Table 4, extended panel; 24 hours, ≥50% inhibition; read-out: MIC C. auris 8971. The method in brief: as §3
In experiment [12] the test system is C. auris 8977. The experiment is described as above. The class given is cell-based, Candida auris. To be noted: Candidozyma auris, 8977; Table 4, extended panel; 24 hours, ≥50% inhibition; read-out: MIC C. auris 8977. The method in brief:
as §3

The subject of experiment [13] is C. auris 8984. The description is as above. Type of experiment: cell-based, Candida auris. Particulars: Candidozyma auris, 8984; Table 4, extended panel; 24 hours, ≥50% inhibition; read-out: MIC C. auris 8984. The method in brief: as §3
Experiment [14] relates to C. albicans 3363. Nature of the experiment: Candida albicans panel MIC. Particulars: Table 6, Candida albicans panel. The class given is cell-based. How it is done: (§4) The minimum inhibitory concentration of test compounds were determined in a panel of Candida species (see Table 4 below), using the a serial dilution method in 96-well plates using the following protocol.
(§5) Starter cultures of fungal strains to be tested were grown in 3 mL of RPMI 2% glucose media incubated at 37° C. with shaking at 200 rpm overnight. The culture media used was 900 mL H2O; 10.4 g RPMI 1640 (with L-glutamine and a pH indicator but without bicarbonate); 34.5 g MOPS and 18 g glucose. The pH of the media was adjusted to 7.0 with 1 M sodium hydroxide.
(§6) Solutions of the compound to be tested were prepared by dissolving the compound in DMSO and subsequently into media to the desired concentrations. 200 μL of compound solution was then added to the wells of the 96-well plate using a serial dilution method row-by row of the plate to give a compound concentration gradient across the plate of from 128 μg/mL to 0.25 μg/mL. The last two rows of each plate were control rows containing the culture media alone and the media plus fungi.
(§7) The fungi starter cultures were diluted 1:10 in water in cuvettes. This was then further diluted to an optical density (OD600) of 0.01 in media. 100 μL of the fungi was added to each well giving a starting concentration of fungus of 0.5-5×10^5/mL. One species of fungus was used on each plate. The plates were then held at 37° C. for 24 hours.
(§8) A plate reader was used to measure growth in each well at OD530 nm and the MIC was determined for each test compound. The MIC is defined as the lowest concentration giving rise to inhibition of ≥50% of that of the drug-free control well containing the fungus and media.
(§9) The compounds shown in Table 6 were tested against a further panel of Candida albicans.

Experiment [15] deals with C. albicans 3645. Briefly: Candida albicans panel MIC. Type of experiment: cell-based. Particulars: Table 6, Candida albicans panel. How it is done: as §4, §5, §6, §7, §8, §9
In experiment [16] the test system is C. albicans 3880. Briefly: Candida albicans panel MIC. Type of experiment: cell-based. Particulars: Table 6, Candida albicans panel. On the procedure: as §4, §5, §6, §7, §8, §9
Experiment [17] has as its system C. albicans 3881. Briefly: Candida albicans panel MIC. Type of experiment: cell-based. To be noted: Table 6, Candida albicans panel. On the procedure:
as §4, §5, §6, §7, §8, §9

For experiment [18], the system named is C. albicans 3882. Briefly: Candida albicans panel MIC. Particulars: Table 6, Candida albicans panel. The class given is cell-based. How it is done: as §4, §5, §6, §7, §8, §9
Experiment [19] deals with C. albicans 3990. Nature of the experiment: Candida albicans panel MIC. The class given is cell-based. Particulars: Table 6, Candida albicans panel. On the procedure: as §4, §5, §6, §7, §8, §9
Experiment [20] has as its system C. albicans 8112. Nature of the experiment: Candida albicans panel MIC. Type of experiment: cell-based. To be noted: Table 6, Candida albicans panel. How it is done:
as §4, §5, §6, §7, §8, §9

[21] abbreviates: Candida albicans, Table 4, common panel, 24 hours, ≥50% inhibition.
Setting [22] is: Table 6, Candida albicans panel.
The mark [23] stands for this setting: NCPF8018, Table 4, common panel, 24 hours, ≥50% inhibition, read-out: MIC C. glabrata NCPF8018.
Where [24] appears, read: NCPF3876, Table 4, common panel, 24 hours, ≥50% inhibition, read-out: MIC C. krusei NCPF3876.
The mark [25] stands for this setting: NCPF3209, Table 4, common panel, 24 hours, ≥50% inhibition, read-out: MIC C. parapsilosis NCPF3209.
Setting [26] is: NCPF8760, Table 4, common panel, 24 hours, ≥50% inhibition, read-out: MIC C. tropicalis NCPF8760.

Values after ≈ are worked out from the molar mass of the structure shown. Like-named read-outs stand apart in the source and are kept apart here.

Take `OC(CN1CCC(Nc2ccc(Cc3ccccc3)cc2)CC1)(Cn1cncn1)c1ccc(F)cc1F` (stereo not shown) [Example 11, 1-(4-((4-benzylphenyl)amino)piperidin-1-yl)-2-(2,4-difluorophenyl)-3-(1H-1,2,4-triazol-1-yl)propan-2-ol]: the MIC was at most 0.125 µg/mL in experiment [1] (setting [21]); at most 0.00098 µg/mL in experiment [1] (setting [22]); at most 0.125 µg/mL in [2] (setting [23]); at most 0.125 µg/mL in experiment [3] (setting [24]); at most 0.125 µg/mL in [4] (setting [25]); at most 0.125 µg/mL in experiment [5]. The MIC in [6] is at most 0.125 µg/mL; in experiment [7] it was 0.125 µg/mL (≈ 0.248 µM); in experiment [8] (setting [26]) it was at most 0.125 µg/mL; in experiment [9], at most 0.125 µg/mL; in experiment [10], at most 0.125 µg/mL; in experiment [11], at most 0.125 µg/mL. Also, the MIC in experiment [12] is at most 0.125 µg/mL; in [13], at most 0.125 µg/mL; in experiment [14], 0.0156 µg/mL (≈ 0.031 µM); in experiment [15], 0.00391 µg/mL (≈ 0.00776 µM); in [16], 0.0313 µg/mL (≈ 0.0622 µM); in experiment [17] it was 0.0313 µg/mL (≈ 0.0622 µM). In addition, the MIC in [18] was 0.0625 µg/mL (≈ 0.124 µM); in [19], 0.0039 to 0.0625 µg/mL (≈ 0.00774 to 0.124 µM); in experiment [20], 0.00195 µg/mL (≈ 0.00387 µM).
Take `OC(CN1CCC(N2CCC(Nc3ccc(Cc4ccccc4)cc3)CC2)CC1)(Cn1cncn1)c1ccc(F)cc1F` (stereo not shown) [Example 12, 1-(4-((4-benzylphenyl)amino)-[1,4′-bipiperidin]-1′-yl)-2-(2,4-difluorophenyl)-3-(1H-1,2,4-triazol-1-yl)propan-2-ol]: the MIC in experiment [1] (setting [21]) is at most 0.125 µg/mL; in experiment [1] (setting [22]) it was 0.002 to 0.004 µg/mL (≈ 0.00341 to 0.00682 µM); in [2] (NCPF8018, read-out: MIC C. Glabrata NCPF8018) it was 0.25 µg/mL (≈ 0.426 µM); in [2] (setting [23]), 0.125 µg/mL (≈ 0.213 µM); in [3] (NCPF3876, read-out: MIC C. Krusei NCPF3876), at most 0.125 µg/mL; in experiment [3] (setting [24]), at most 0.125 µg/mL. Also, the MIC in experiment [4] (NCPF3209, read-out: MIC C. Parapsilosis NCPF3209) is at most 0.125 µg/mL; in [4] (setting [25]), at most 0.125 µg/mL; in experiment [5] it was at most 0.125 µg/mL; in experiment [6], at most 0.125 µg/mL; in experiment [7] it was 0.125 µg/mL (≈ 0.213 µM); in experiment [8] (setting [26]), at most 0.125 µg/mL. The MIC is at most 0.125 µg/mL in experiment [8] (NCPF8760, read-out: MIC C. Tropicalis NCPF8760); at most 0.125 µg/mL in experiment [9]; at most 0.125 µg/mL in experiment [10]; at most 0.125 µg/mL in [11]; at most 0.125 µg/mL in [12]; at most 0.125 µg/mL in experiment [13]. Besides, the MIC stood at 0.0625 µg/mL (≈ 0.107 µM) in experiment [14]; 0.00391 µg/mL (≈ 0.00666 µM) in experiment [15]; 0.0313 µg/mL (≈ 0.0533 µM) in [16]; 0.0625 µg/mL (≈ 0.107 µM) in [17]; 0.0625 µg/mL (≈ 0.107 µM) in experiment [18]; 0.0313 µg/mL (≈ 0.0533 µM) in experiment [19]. The MIC in [20] is 0.00391 µg/mL (≈ 0.00666 µM).

Values taken from patent US20240246920A1, “TRIAZOLE DERIVATIVES WITH ANTIFUNGAL ACTIVITY” (King's College London, priority 2020, published 2024).
